What was measured:
Assay in all cases: relative viability (nuclei count vs DMSO), 5 days (fraction); higher = more cells survive
AZD6482 + Pemetrexed = compound: Cc1cc([C@@H](C)Nc2ccccc2C(=O)O)c2nc(N3CCOCC3)cc(=O)n2c1 [AZD6482] + Nc1nc2[nH]cc(CCc3ccc(C(=O)N[C@@H](CCC(=O)O)C(=O)O)cc3)c2c(=O)[nH]1 [Pemetrexed] (partner 0.2 µM)
Procedure, shortened: (§1)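 Cells from lung cancer lines were seeded into 1536-well plates and, one day later, dosed by pin tool. Treatments were either a single drug or a fixed dose of an anchor drug with five library-drug doses (not always all listed) in √10 steps. After 5 days, nuclei were stained in a one-step fixation (final 0.05% Triton X-100, 1% formaldehyde, 1 ug/ml Hoechst) and counted on 4× images, and relative viability is the treated-to-vehicle nuclei ratio, as the median of duplicate plates.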

AZD6482 + Lapatinib = compound: Cc1cc([C@@H](C)Nc2ccccc2C(=O)O)c2nc(N3CCOCC3)cc(=O)n2c1 [AZD6482] + CS(=O)(=O)CCNCc1ccc(-c2ccc3ncnc(Nc4ccc(OCc5cccc(F)c5)c(Cl)c4)c3c2)o1 [Lapatinib] (partner 2 µM)
Procedure, shortened: as §1

AZD6482 + OSI-027 = compound: Cc1cc([C@@H](C)Nc2ccccc2C(=O)O)c2nc(N3CCOCC3)cc(=O)n2c1 [AZD6482] + COc1cccc2cc(-c3nc([C@H]4CC[C@H](C(=O)O)CC4)n4ncnc(N)c34)[nH]c12 [OSI-027] (partner 0.5 µM)
Procedure, shortened: as §1

[1] = compound: COc1cc2nc(N3CCCN(C)CC3)nc(NC3CCN(Cc4ccccc4)CC3)c2cc1OC + COc1cc2c(Oc3ccc(NC(=O)C4(C(=O)Nc5ccc(F)cc5)CC4)cc3F)ccnc2cc1OCCCN1CCOCC1 [Foretinib] (partner 0.25 µM)
Procedure, shortened: as §1

Cell Line	relative viability (AZD6482 + Pemetrexed; first compound 0.08 µM)	relative viability (AZD6482 + Pemetrexed; first compound 0.253 µM)	relative viability (AZD6482 + Pemetrexed; first compound 0.8 µM)	relative viability (AZD6482 + Pemetrexed; first compound 2.53 µM)	relative viability (AZD6482 + Pemetrexed; first compound 8 µM)	relative viability (AZD6482 + Lapatinib; first compound 0.08 µM)	relative viability (AZD6482 + Lapatinib; first compound 0.253 µM)	relative viability (AZD6482 + Lapatinib; first compound 0.8 µM)	relative viability (AZD6482 + Lapatinib; first compound 2.53 µM)	relative viability (AZD6482 + Lapatinib; first compound 8 µM)	relative viability (AZD6482 + OSI-027; first compound 0.08 µM)	relative viability (AZD6482 + OSI-027; first compound 0.253 µM)	relative viability (AZD6482 + OSI-027; first compound 0.8 µM)	relative viability (AZD6482 + OSI-027; first compound 2.53 µM)	relative viability (AZD6482 + OSI-027; first compound 8 µM)	relative viability ([1]; first compound 0.2 µM)	relative viability ([1]; first compound 0.6325 µM)	relative viability ([1]; first compound 2 µM)	relative viability ([1]; first compound 6.325 µM)
201T	0.31	0.295	0.27	0.314	0.342	1.02	1.04	1.17	0.843	0.993	0.657	0.663	0.631	0.462	0.601	1.13	1.08	1.09	1.11
A549	–	–	–	–	–	0.944	0.891	0.913	0.485	0.571	–	–	–	–	–	0.951	0.966	0.997	0.763
A-427	0.92	0.967	0.963	0.686	0.995	0.97	0.869	1.08	0.777	1.1	0.458	0.348	0.52	–	0.423	0.918	0.977	1.13	1.09
ABC-1	–	–	–	–	–	1.07	1.16	1.07	1.03	0.932	0.51	0.478	0.358	0.401	0.406	1.04	1.35	1.32	0.996
BEN	0.766	0.589	0.829	0.512	0.703	0.732	0.722	0.671	0.553	0.687	0.314	0.302	0.273	0.276	0.299	0.908	0.786	0.91	0.972
CAL-12T	1.08	1.12	1.16	0.867	1.31	0.601	–	0.529	0.272	0.578	0.706	0.715	0.519	0.348	0.342	1.01	1.15	1.38	0.941
COR-L23	0.198	0.205	0.197	0.182	0.204	0.938	0.948	1.15	0.734	0.893	0.552	0.791	0.911	0.611	0.751	1.02	0.95	0.965	0.996
COR-L 105	0.935	1.13	1.26	0.761	1.21	0.382	0.326	0.351	0.364	0.355	0.75	0.742	0.577	0.33	0.517	1.06	1.27	1.13	0.921
Calu-6	–	–	–	–	–	1.05	1.07	1.14	0.879	0.953	–	–	–	–	–	0.867	0.865	0.983	0.903
ChaGo-K-1	0.259	0.262	0.271	0.262	0.258	–	–	–	–	–	0.634	0.323	0.539	0.477	0.49	1	0.929	0.941	0.907
EBC-1	–	–	–	–	–	0.184	0.196	0.211	0.218	0.216	–	–	–	–	–	0.1	0.117	0.114	0.107
EKVX	0.368	0.373	0.317	0.265	0.348	0.173	0.342	0.181	0.141	0.167	0.624	0.62	0.684	0.387	0.434	0.754	0.814	0.986	0.794
EMC-BAC-2	0.415	0.45	0.438	0.414	0.413	0.852	0.869	0.886	0.695	0.828	0.394	0.376	0.347	0.273	0.316	0.956	0.973	1.05	1.01
EPLC-272H	0.24	0.382	0.383	0.424	0.269	0.812	–	1.01	0.709	0.673	0.29	0.235	0.345	0.214	0.255	0.783	0.723	0.847	0.686
H3255	0.535	0.577	0.583	0.464	0.507	0.194	0.221	0.263	0.182	0.152	0.618	0.53	0.554	0.411	0.392	0.857	0.812	0.981	1.05
HARA	0.217	0.241	0.278	0.254	0.253	0.707	0.503	0.919	–	0.483	0.318	0.528	0.633	0.249	0.376	0.973	0.9	0.92	0.92
HCC-15	0.208	0.231	0.244	0.228	0.212	0.873	0.792	0.882	0.737	0.914	0.672	0.61	0.666	0.385	0.485	1.1	1	1.06	0.853
HCC-44	0.669	0.661	0.763	0.741	0.831	0.909	1.06	1.13	1.1	0.882	0.46	0.511	0.574	0.37	0.296	–	–	–	–
HCC-78	0.87	0.857	0.926	0.862	0.953	0.512	0.683	1.52	0.255	0.503	0.316	0.315	0.32	0.265	0.303	0.57	0.578	0.58	0.533

Source: the supplement of paper PMC10307832
